This is an account of results in PMC9785441, “A Broad Spectrum Antiparasitic Activity of Organotin (IV) Derivatives and Its Untargeted Proteomic Profiling Using Leishmania donovani” (Pathogens, 2022).

Entries after “also recorded” stand apart in the source; their conditions may differ. A value given as a limit tells only on which side of the number the result lay.

Data set [1] can be described thus: Cytotoxicity to B10R host cells (nuclei count in the amastigote assay). It counts as cell-based. To be noted: mouse, B10R monocyte cells co-cultured with L. donovani parasites. How it is done:
For the intracellular amastigote stage assay, L. donovani was incubated at a density of 1 × 10^6 parasites/mL for six days at 29 °C before infection to enrich the proportion of metacyclic promastigotes. B10R monocyte cell lines were cultured in RPMI supplemented with 10% FBS and 1%penicillin/streptomycin at 37 °C in 5% CO2. After 72 h, cells were counted with a hemocytometer and mixed with the six-day-old parasites. […] Plates were incubated at 37 °C and 5% CO2 for 72 h. Cultures were then fixed with 4% formaldehyde solution for 30 min and stained with 0.5 µg/mL DAPI (diamidino-2-phenylindole). Plates were then imaged using an ImageXpress Micro XLS automated high content imager (Molecular Devices, San Jose, CA, USA) using a 10× air objective. A custom image analysis module generated in ImageXpress was used to count the nuclei of host and parasite cells. EC50 values were obtained using the GraphPad Prism 9 Software with biological triplicates.

Data set [2] can be described thus: HEK293 cytotoxicity assay (resazurin). To be noted: HEK-293T cells, human embryonic kidney cells, max 4 µM, read-out: CC50 HEK923. It counts as cell-based. How it is done: HEK-293T cells were cultured in DMEM (Gibco) supplemented with 10% heat inactivated FBS (Corning) and 1% penicillin-streptomycin (Gibco). Cells were maintained in vented T75 cell culture flasks (Thermo Scientific, Cat. 12-565-349) at 37 °C and 5% CO2, and were passaged every 72 h. […] Compounds were diluted with fresh DMEM (49 µL/well). HEK-293 cells were suspended at 4 × 10^5 cells/mL in DMEM and added to each well (50 µL/well) to give 2 × 10^4 cells/well. Assay plates were incubated at 37 °C and 5% CO2 for 48 h, followed by addition of 20 µL of 0.5 mM resazurin (Alfa Aesar, Cat. B21187) in PBS to each well. […] In each assay plate, cell viability was normalized relative to positive and negative controls. Assays were performed in biological and technical duplicates, and dose–response and CC50 data were generated with GraphPad Prism 5 using a sigmoidal four parameter logistic curve.
Background: The colour change of resazurin is a common sign of viable cells or microbes.

Data set [3] deals with L. donovani-infected B10R cells. Description: Untargeted proteomics of L. donovani-infected B10R cells treated and untreated with MS26Et3. It counts as cell-based, mouse / Leishmania donovani. To be noted: L. donovani-infected B10R cells exposed to compound vs not exposed. On the procedure: B10R culture cells (infected or uninfected with Leishmanaia donovani) were collected and washed twice in cold PBS. The cell pellets (~10^6 cells/pellet) were snap-frozen and stored at −80 °C. To extract the proteins, pellets were thawed, and the cells were resuspended in 200 µL buffer containing 6 M urea, 7% SDS, 50 mM TEAB, protease inhibitor cocktail (Roche, cat. no. A32963), phosphatase inhibitor (Roche, cat. no. A32957), with pH adjusted to 8.1 with phosphoric acid. The cells were then lysed using a sonicating probe 200 µL. The samples were reduced in 500 mM DTT at 47 °C for 30 min and alkylated in 500 mM IAA in the absence of light, at room temperature for 45 min, followed by quenching in 500 mM DTT for 5 min. The samples were then acidified with 12% phosphoric acid and mixed in a 7:1 ratio with binding buffer containing 90% methanol, 50 mM TEAB, pH 7.1, adjusted with phosphoric acid and loaded on to S-Trap columns (Protifi). […] The concentration of desalted peptides was determined and 50 µg aliquots of each sample were dried in a speed vacuum concentrator. […]
Basic pH reverse-phase LC and data acquisition through LC–MS2/MS3 were performed as previously described. […] Fractions were then analyzed using tandem mass spectrometry (MS2/MS3) on an Orbitrap Fusion mass spectrometer (ThermoFisher, Waltham, MA, USA) with an in-line EASY-nLC 1000 instrument (ThermoFisher, Waltham, MA, USA). […]

The term CC50 denotes the concentration that lowers cell viability or growth by half. Turning to `COc1ccc(NC(=O)CCC(=O)O)cc1` [MS26, 4-(4-methoxyphenylamino)-4 oxobutanoic acid], half-maximal cytotoxicity in data set [1] (CC50 at 72 h) was put at 2.38 µM. In data set [2], the CC50 at 48 h is above 4 µM.
Take `C[CH2][Sn]([CH2]C)([CH2]C)[O]C(=O)CCC(=O)Nc1ccc(OC)cc1` [MS26Et3]: the “Rab7 expression / abundance” value in data set [3] is “reduced expression; also recorded: differentially expressed; also recorded: decreased in abundance”.
